Values quoted from earlier work as cited in patent US20020098247A1, “Methods and compositions for the improvement of insulin sensitivity, reduction of hyperglycemia, and reduction of hypercholesterolemia with chromium complexes and alpha lipoic acid” (priority 2000, published 2002).

Experiments:
[1] = test system: patients with Type II diabetes; conditions: 600 mg tid orally, three weeks
[2] = test system: patients with Type II diabetes; conditions: 600 mg intravenously three weeks, then 6 months tid oral
[3] = test system: Patients with Type II diabetes with symptomatic polyneuropathy; conditions: intravenous, three weeks
[4] = test system: patients with Type I and Type II diabetes
[5] = test system: isolated vasculature of diabetic rats
[6] = rats, oral administration of CrCl3 with the NSAID

chromium absorption [6]	Compound	TSS in the feet and NDS scores [1]	side effects vs placebo [1]	neuropathy as evidenced by the TSS vs placebo [2]	side effects between groups [2]	frequency of adverse effects ([3]; 1,200 mg dose group vs other groups)	decrease of Total Symptom Score (TSS) in the feet ([3]; two higher doses (600, 1,200 mg per day))	sensory nerve and tibial nerve conduction velocities ([4]; 600 or 1,200 mg per day, intravenous five days then oral two years)	Neuropathy Disability Score values ([4]; 600 or 1,200 mg per day, two years)	incidence or severity of side effects vs placebo ([4]; two-year study)	prevention of the deficit in acetylcholine-induced relaxation in isolated vasculature [5] [%]
–	O=C(O)CCCCC1CCSS1 (stereo not drawn) [alpha-lipoic acid]	improvements	No significant differences	significantly lessened	no significant differences	slightly greater rate of gastrointestinal side effects	approximately 60%	improvements	not significantly affected	no significant differences	94
facilitated	CC(=O)Oc1ccccc1C(=O)O [aspirin, acetylsalicylic acid]	–	–	–	–	–	–	–	–	–	–
